According to patent US6906205B2, “Spiro and dispiro 1,2,4-trioxolane antimalarials” (Medicines for Malaria Venture MMV, priority 2002, dated 2005):
In brackets after ≈: the same amount, converted by molar mass.

Key:
[1] = test system: P. falciparum K1 strain (Thailand resistant to chloroquine); assay: semiautomated microdilution assay, [3H]-hypoxanthine incorporation, K1 strain; format: cell-based, Plasmodium falciparum; conditions: K1 strain, 72 h incubation
Summary of the method: (§1)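 Intraerythrocytic stages from unsynchronised stock cultures are exposed to test compounds in a semiautomated microdilution format, and fifty percent inhibitory concentrations are then fitted by logit regression.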

[2] = test system: P. falciparum NF54 strain (sensitive to standard antimalarials); assay: semiautomated microdilution assay, [3H]-hypoxanthine incorporation, NF54 strain; format: cell-based, Plasmodium falciparum; conditions: NF54 strain, 72 h incubation
Summary of the method: as §1

[3] = test system: ANKA strain of P. berghei; assay: single dose STI in vivo screen in infected mice; parameters: species or system Plasmodium berghei; conditions: for Activity (%) po / Activity (%) sc / Activity (%) SSVpo: percent reduction in parasitemia day 3 post-infection, mice; for Activity (%) po / Survival (days) po: single 10 mg/kg po in 3% ethanol and 7% Tween 80; for Activity (%) sc / Survival (days) sc: single 10 mg/kg sc in 3% ethanol and 7% Tween 80; for Activity (%) SSVpo: single po dose in standard suspending vehicle (SSV); for Survival (days) po / Survival (days) sc / Survival (days) SSVpo: untreated control 5.6 ± 0.3; for Survival (days) SSVpo: single po dose in SSV
Summary of the method: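 Groups of 3-5 Moro SPF or NMRI mice infected with the ANKA strain of P. berghei received a single dose of trioxolane on day one post-infection. The compound was given in 3% ethanol and 7% Tween 80 or in SSV (0.5% w/v CMC, 0.5% v/v benzyl alcohol, 0.4% v/v Tween 80, 0.9% w/v sodium chloride in water). Antimalarial activity was scored as percent reduction in parasitemia on day three and as survival time versus untreated controls. Survival to day 30 counted as cure.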

[4] = test system: Schistosoma mansoni 21-day-old schistosomules; assay: effect on 21-day-old schistosomules in mice; format: in vivo; conditions: single 200 mg/kg per os, female mice
Description: All groups were killed 4 weeks after treatment and the liver and intestine were removed and separated. The liver and intestine were compressed and alive male and female worms could be seen and counted. The effect of the compounds was evaluated by mean total and female worm burden.

[5] = test system: Schistosoma mansoni adult schistosomes (49-day-old); assay: effect on adult schistosomes (49-day-old) in mice; format: in vivo; conditions: for % reduction of adult worms growth at day 49 after per os application of 400 mg/kg, TWR (%) / adult worms at day 49, per os 400 mg/kg, DEAD WORM (%): single 400 mg/kg per os; for Tox (mice): infected mice
Description: Mice were infected with 100 Schistosoma mansoni cercariae […]. Each group was treated per os with OZ compounds at single doses of 200, 400, and 600 mg/kg. […] All groups were killed 4 weeks after treatment and the liver and intestine were removed and separated. The liver and intestine were compressed and alive male and female worms could be seen and counted.

Compound	IC50 (ng/ml) K1 [1]	IC50 (ng/ml) NF54 [2]	Activity (%) po [3]	Activity (%) sc [3]	Activity (%) SSVpo [3]	Survival (days) po [3]	Survival (days) sc [3]	Survival (days) SSVpo [3]	% reduction of schistosomule growth at day 21 after per os application of 200 mg/kg, FWR (%) [4]	% reduction of schistosomule growth at day 21 after per os application of 200 mg/kg, TWR (%) [4]	% reduction of adult worms growth at day 49 after per os application of 400 mg/kg, TWR (%) [5]	adult worms at day 49, per os 400 mg/kg, DEAD WORM (%) [5]	Activity (%) po ([3]; 10 mg/kg)	Activity (%) sc ([3]; 10 mg/kg)	Survival (days) sc ([3]; 10 mg/kg)	Survival (days) po ([3]; 10 mg/kg)	Tox (mice) ([5]; 200 mg/kg per os)	Tox (mice) ([5]; 400 mg/kg per os)	% reduction of adult worms growth at day 49 after per os application of 200 mg/kg, TWR (%) ([5]; single 200 mg/kg per os)	adult worms at day 49, per os 200 mg/kg, DEAD WORM (%) ([5]; single 200 mg/kg per os)
ON=C1CCC2(CC1)OOC1(O2)C2CC3CC(C2)CC1C3 (stereo not drawn) [OZ16]	0.45 ng/mL (≈ 1.53 nM)	0.67 ng/mL (≈ 2.28 nM)	79%	99.2%	83%	6.7 days	7.3 days	6.7 days	77%	78%										
CON=C1CC2CC3(CC2C1)OOC1(O3)C2CC3CC(C2)CC1C3 (stereo not drawn) [OZ37]			83%	99.98%		6.7 days	13 days		53%	63%										
O=C(CO)N1CCC2(CC1)OOC1(O2)C2CC3CC(C2)CC1C3 (stereo not drawn) [OZ83]	0.30 ng/mL (≈ 0.928 nM)	0.60 ng/mL (≈ 1.86 nM)	92%	99.8%	78%	7.0 days	8.0 days	6.3 days			7%	19%								
NC(=O)OC1CCC2(CC1)OOC1(O2)C2CC3CC(C2)CC1C3 (stereo not drawn) [OZ107]	1.0 ng/mL (≈ 3.09 nM)	0.30 ng/mL (≈ 0.928 nM)	70%	99.74%	32%	6.3 days	8.0 days	6.3 days			26%	4%								
CC(C)(C)CC(=O)N1CCC2(CC1)OOC1(O2)C2CC3CC(C2)CC1C3 (stereo not drawn) [OZ111]	0.92 ng/mL (≈ 2.53 nM)		98%	99.94%	79%	7.7 days	8.3 days	6.3 days	68%	71%										
CCN(CC)CC[C@H]1CC[C@]2(CC1)OOC1(O2)C2CC3CC(C2)CC1C3 (stereo partly drawn) [OZ126]	0.20 ng/mL (≈ 0.55 nM)	0.50 ng/mL (≈ 1.38 nM)	55%	99.44%	72%	7.0 days	8.5 days	6.7 days			0%	9%								
O=C1COC2(CCC3(CC2)OOC2(O3)C3CC4CC(C3)CC2C4)OC1 (stereo not drawn) [OZ130]	0.62 ng/mL (≈ 1.77 nM)	0.94 ng/mL (≈ 2.68 nM)	98.8%	98.6%	98.9%	9.0 days	7.3 days	8.0 days			0%	8%								
O=C([C@H]1CC[C@]2(CC1)OOC1(O2)C2CC3CC(C2)CC1C3)N1CCN(c2ccccc2)CC1 (stereo partly drawn) [OZ140]	5.9 ng/mL (≈ 13 nM)	8.2 ng/mL (≈ 18.1 nM)	0%	60%	8%	6.0 days	7.0 days	6.3 days			0%	3%								
O=C(OC[C@H]1CC[C@]2(CC1)OOC1(O2)C2CC3CC(C2)CC1C3)N1CCN(c2ccccc2)CC1 (stereo partly drawn) [OZ148]	17 ng/mL (≈ 35.2 nM)	16 ng/mL (≈ 33.2 nM)	38%	21%	58%	7.3 days	6.3 days	7.7 days			25%	0%								
OC12CC3CC(C1)C1(OOC4(CCC5(CC4)OCCO5)O1)C(C3)C2 (stereo not drawn) [OZ153]	7.7 ng/mL (≈ 22.8 nM)	19 ng/mL (≈ 56.1 nM)			23%	6.3 days		7.0 days			No alive/dead worm*		15%	20%	6.3 days					
CC1(C)COC(c2ccc([C@H]3CC[C@]4(CC3)OOC3(O4)C4CC5CC(C4)CC3C5)cc2)=N1 (stereo partly drawn) [OZ154]	5.0 ng/mL (≈ 11.4 nM)	6.1 ng/mL (≈ 13.9 nM)			81%			8.7 days			58%	0%	99.74%	59%	7.7 days	14.7 days				
O=C(C[C@H]1CC[C@]2(CC1)OOC1(O2)C2CC3CC(C2)CC1C3)N1CCOCC1 (stereo partly drawn) [OZ189]	1.7 ng/mL (≈ 4.34 nM)	3.0 ng/mL (≈ 7.66 nM)	95%	98%	99.79%	9.3 days	10.7 days	9.0 days									*Tox: 2/3	Tox: 3/3 ^	0%	17%
C1=C(c2ccccc2)CCC2(C1)OOC1(O2)C2CC3CC(C2)CC1C3 (stereo not drawn) [OZ226]	4.0/4.0 ng/ml	4.0/4.0 ng/ml	0%	99.92%	0%	5.0 days	11.0 days	5.3 days			52%	0%								
